{
  "source": "patent US12077555B2",
  "about": "“STAT degraders and uses thereof” (Kymera Therapeutics, Inc., priority 2019, dated 2024)",
  "data": [
    {"target": "STAT3 (Homo sapiens, UniProt P40763)", "sequence (P40763 whole entry)": "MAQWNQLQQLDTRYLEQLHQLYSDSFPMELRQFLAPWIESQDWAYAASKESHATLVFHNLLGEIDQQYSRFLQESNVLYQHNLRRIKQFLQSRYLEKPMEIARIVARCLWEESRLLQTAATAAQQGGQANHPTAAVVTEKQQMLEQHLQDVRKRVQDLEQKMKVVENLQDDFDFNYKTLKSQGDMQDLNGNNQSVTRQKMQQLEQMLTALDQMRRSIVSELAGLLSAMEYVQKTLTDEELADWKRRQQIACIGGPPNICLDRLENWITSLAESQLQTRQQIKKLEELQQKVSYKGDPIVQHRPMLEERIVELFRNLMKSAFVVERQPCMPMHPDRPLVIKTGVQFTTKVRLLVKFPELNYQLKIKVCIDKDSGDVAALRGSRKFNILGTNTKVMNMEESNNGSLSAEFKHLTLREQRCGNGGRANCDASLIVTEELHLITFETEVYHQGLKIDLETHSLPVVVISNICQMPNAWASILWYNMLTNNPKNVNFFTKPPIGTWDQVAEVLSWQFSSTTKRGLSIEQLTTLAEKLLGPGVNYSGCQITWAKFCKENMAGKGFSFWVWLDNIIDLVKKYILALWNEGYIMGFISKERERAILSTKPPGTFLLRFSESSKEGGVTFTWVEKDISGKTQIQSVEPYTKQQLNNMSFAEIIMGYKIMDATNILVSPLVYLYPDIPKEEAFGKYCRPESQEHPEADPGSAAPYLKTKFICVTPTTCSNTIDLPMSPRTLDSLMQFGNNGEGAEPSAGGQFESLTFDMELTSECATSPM", "assay": "STAT3 HiBiT degradation assay in transfected A549 cells", "format": "cell-based", "design": "expressed in transfected cells; host or cells: A549", "conditions": "A549, 24 h; read-out: STAT3 HiBiT A549 degradation 24 h: Average external-Abs DC50", "method": "(§1) Compound preparation and Cell seeding: The transfected A549 cells were harvested from dish into cell culture medium and cell numbers counted. Cells were diluted with culture medium to the desired density and 30 μL of cell suspension (about 2000 cells/well) were added into each well of a 384-well cell culture plate as designated and transferred into 37° C. 5% CO2 incubator for 24 h. Compounds were dissolved to 10 mM stock solution and 12 μL of the stock solution was transferred to a 384 LDV-plate. 3 fold, 10-point dilution was performed by transferring 4 μL compound into 8 μL DMSO using a TECAN (EVO200) liquid handler. 30 μL of diluted compound from compound source plate was transferred into the cell plate as designated by using Echo550 and transferred into 37° C. 5% CO2 incubator for 24 h.\n(§2) Detection: Plates were removed from incubators and equilibrated at room temperature for 15 minutes. Nano-Glo Hibit Lytic Detection reagent (Promega Cat #N3040) was thawed and equilibrated to room temperature before the experiment. 30 μL of Nano-Glo Hibit Lytic Detection reagent was added into each well to be detected. The plates were held at room temperature for 10 min followed by reading on EnSpire.\n(§3) Data analysis: The remaining activity was calculated following the formula: Remaining Activity (%)=100%×(Lumsample−LumNC)/(LumPC−LumNC). Calculate the IC50 by fitting the curve using Xlfit (v5.3.1.3), equation 201: fit=(A+((B−A)/(1+((x/C)^D)))); A: Bottom; B: Top; C: IC50; and D: Slope.\n(§4) The letter codes for STAT3 DC50 include: A (<0.01 μM), B (0.01-0.1 μM), C (0.1-1.0 μM), and D (>1.0 μM).", "units": {"DC50": "nM"}, "values": [
      {"smiles": "C/C(=C\\C(=O)N[C@H]1CCc2cccc3c2N(C1=O)[C@H](C(=O)N[C@@H](CCC(N)=O)[C@@H](C)OCc1ccc(CCCCC(=O)N[C@H](C(=O)N2C[C@@H](O)C[C@H]2C(=O)NCc2ccc(-c4scnc4C)cc2)C(C)(C)C)cc1)C3)c1ccc(C(F)(F)P(=O)(O)O)cc1", "note": "[Compound I-119]", "DC50": "> 1000"},
      {"smiles": "Cc1ncsc1-c1ccc(CNC(=O)[C@@H]2C[C@H](O)CN2C(=O)[C@@H](NC(=O)CCCCc2ccc(CO[C@H](C)[C@H](CCC(N)=O)NC(=O)[C@@H]3Cc4cccc5c4N3C(=O)[C@@H](NC(=O)c3cc4cc(C(=O)P(=O)(O)O)ccc4[nH]3)CC5)cc2)C(C)(C)C)cc1", "note": "[Compound I-121, diammonium 2-[[(2S,11S)-2-[[(3S,4R)-1-carbamoyl-4-[[4-(4-[[(2S)-1-[(2S,4S)-4-hydroxy-2-([[4-(4-methyl-1,3-thiazol-5-yl)phenyl]methyl]carbamoyl)pyrrolidin-1-yl]-3,3-dimethyl-1-oxobutan-2-yl]carbamoyl]butyl)phenyl]methoxy]pentan-3-yl]carbamoyl]-12-oxo-1-azatricyclo[6.4.1.0^[4,13]]trideca-4(13),5,7-trien-11-yl]carbamoyl]-1H-indole-5-carbonylphosphonate]", "DC50": "> 1000"},
      {"smiles": "Cn1c(=O)n(C2CCC(=O)NC2=O)c2cccc(CCCC(=O)N3CC[C@H]4CC[C@@H](C(=O)N[C@@H](CCC(N)=O)C(=O)NC(c5ccccc5)c5ccccc5)N4C(=O)[C@@H](NC(=O)c4cc5cc(C(=O)P(=O)(O)O)ccc5[nH]4)C3)c21", "note": "(stereo partly drawn) [Compound I-122, 2-[[(5S,8S,10aR)-8-[[(1S)-3-carbamoyl-1-(diphenylmethylcarbamoyl)propyL]carbamoyl]-3-[4-[1-(2,6-dioxopiperidin-3-yl)-3-methyl-2-oxo-1,3-benzodiazol-4-yl]butanoyl]-6-oxo-octahydropyrrolo[1,2-a][1,5]diazocin-5-yl]carbamoyl]-1H-indole-5-carbonylphosphonic acid]", "DC50": "> 1000"},
      {"smiles": "Cn1c(=O)n(C2CCC(=O)NC2=O)c2cccc(CCCCCC(=O)N3CC[C@H]4CC[C@@H](C(=O)N[C@@H](CCC(N)=O)C(=O)NC(c5ccccc5)c5ccccc5)N4C(=O)[C@@H](NC(=O)c4cc5cc(C(=O)P(=O)(O)O)ccc5[nH]4)C3)c21", "note": "(stereo partly drawn) [Compound I-123, 2-[[(5S,8S,10aR)-8-[[(1S)-3-carbamoyl-1-(diphenylmethylcarbamoyl)propyl]carbamoyl]-3-[6-[1-(2,6-dioxopiperidin-3-yl)-3-methyl-2-oxo-1,3-benzodiazol-4-yl]hexanoyl]-6-oxo-octahydropyrrolo[1,2-a][1,5]diazocin-5-yl]carbamoyl]-1H-indole-5-carbonylphosphonic acid]", "DC50": "> 1000"},
      {"smiles": "Cn1c(=O)n(C2CCC(=O)NC2=O)c2cccc(CCCCCCC(=O)N3CC[C@H]4CC[C@@H](C(=O)N[C@@H](CCC(N)=O)C(=O)NC(c5ccccc5)c5ccccc5)N4C(=O)[C@@H](NC(=O)c4cc5cc(C(=O)P(=O)(O)O)ccc5[nH]4)C3)c21", "note": "(stereo partly drawn) [Compound I-124, 2-[[(5S,8S,10aR)-8-[[(1S)-3-carbamoyl-1-(diphenylmethylcarbamoyl)propyl]carbamoyl]-3-[7-[1-(2,6-dioxopiperidin-3-yl)-3-methyl-2-oxo-1,3-benzodiazol-4-yl]heptanoyl]-6-oxo-octahydropyrrolo[1,2-a][1,5]diazocin-5-yl]carbamoyl]-1H-indole-5-carbonylphosphonic acid]", "DC50": "> 1000"},
      {"smiles": "Cn1c(=O)n(C2CCC(=O)NC2=O)c2cccc(CCCCCCCCC(=O)N3CC[C@H]4CC[C@@H](C(=O)N[C@@H](CCC(N)=O)C(=O)NC(c5ccccc5)c5ccccc5)N4C(=O)[C@@H](NC(=O)c4cc5cc(C(=O)P(=O)(O)O)ccc5[nH]4)C3)c21", "note": "(stereo partly drawn) [Compound I-125, 2-[[(5S,8S,10aR)-8-[[(1S)-3-carbamoyl-1-(diphenylmethylcarbamoyl)propyl]carbamoyl]-3-[9-[1-(2,6-dioxopiperidin-3-yl)-3-methyl-2-oxo-1,3-benzodiazol-4-yl]nonanoyl]-6-oxo-octahydropyrrolo[1,2-a][1,5]diazocin-5-yl]carbamoyl]-1H-indole-5-carbonylphosphonic acid]", "DC50": "100 to 1000"},
      {"smiles": "Cc1ncsc1-c1ccc(CNC(=O)[C@@H]2C[C@@H](O)CN2C(=O)[C@@H](NC(=O)CCc2ccc3ccc(CO[C@H](C)[C@H](CCC(N)=O)NC(=O)[C@@H]4Cc5cccc6c5N4C(=O)[C@@H](NC(=O)c4cc5cc(C(=O)P(=O)(O)O)ccc5[nH]4)CC6)cc3c2)C(C)(C)C)cc1", "note": "[Compound I-126]", "DC50": "> 1000"},
      {"smiles": "Cc1ncsc1-c1ccc(CNC(=O)[C@@H]2C[C@@H](O)CN2C(=O)[C@@H](NC(=O)CCCc2ccc3cc(CO[C@H](C)[C@H](CCC(N)=O)NC(=O)[C@@H]4Cc5cccc6c5N4C(=O)[C@@H](NC(=O)c4cc5cc(C(=O)P(=O)(O)O)ccc5[nH]4)CC6)ccc3c2)C(C)(C)C)cc1", "note": "[Compound I-127, diammonium 2-[[(2S,11S)-2-[[(3S,4R)-1-carbamoyl-4-[[6-(3-[[(2S)-1-[(2S,4R)-4-hydroxy-2-([[4-(4-methyl-1,3-thiazol-5-yl)phenyl]methyl]carbamoyl)pyrrolidin-1-yl]-3,3-dimethyl-1-oxobutan-2-yl]carbamoyl]propyl)naphthalen-2-yl]methoxy]pentan-3-yl]carbamoyl]-12-oxo-1-azatricyclo[6.4.1.0^[4,13]]trideca-4(13),5,7-trien-11-yl]carbamoyl]-1H-indole-5-carbonylphosphonate]", "DC50": "100 to 1000"},
      {"smiles": "Cn1c(=O)n(C2CCC(=O)NC2=O)c2ccc(N3CCC(CCCC(=O)N4CC[C@H]5CC[C@@H](C(=O)N[C@@H](CCC(N)=O)C(=O)NC(c6ccccc6)c6ccccc6)N5C(=O)[C@@H](NC(=O)c5cc6cc(C(=O)P(=O)(O)O)ccc6[nH]5)C4)CC3)cc21", "note": "(stereo partly drawn) [Compound I-128, 2-[[(5S,8S,10aR)-8-[[(1S)-3-carbamoyl-1-(diphenylmethylcarbamoyl)propyl]carbamoyl]-3-(4-[1-[1-(2,6-dioxopiperidin-3-yl)-3-methyl-2-oxo-1,3-benzodiazol-5-yl]piperidin-4-yl]butanoyl)-6-oxo-octahydropyrrolo[1,2-a][1,5]diazocin-5-yl]carbamoyl]-1H-indole-5-carbonylphosphonic acid]", "DC50": "100 to 1000"},
      {"smiles": "Cc1ncsc1-c1ccc(CNC(=O)[C@@H]2C[C@@H](O)CN2C(=O)[C@@H](NC(=O)CCC/C=C/c2ccc(CO[C@H](C)[C@H](CCC(N)=O)NC(=O)[C@@H]3Cc4cccc5c4N3C(=O)[C@@H](NC(=O)c3cc4cc(C(=O)P(=O)(O)O)ccc4[nH]3)CC5)cc2)C(C)(C)C)cc1", "note": "[Compound I-129, diammonium 2-[[(2S,11S)-2-[[(3S,4R)-1-carbamoyl-4-([4-[(1E)-5-[[(2S)-1-[(2S,4R)-4-hydroxy-2-([[4-(4-methyl-1,3-thiazol-5-yl)phenyl]methyl]carbamoyl)pyrrolidin-1-yl]-3,3-dimethyl-1-oxobutan-2-yl]carbamoyl]pent-1-en-l-yl]phenyl]methoxy)pentan-3-yl]carbamoyl]-12-oxo-1-azatricyclo[6.4.1.0^[4,13]]trideca-4(13),5,7-trien-11-yl]carbamoyl]-1H-indole-5-carbonylphosphonate]", "DC50": "100 to 1000"},
      {"smiles": "Cc1ncsc1-c1ccc(CNC(=O)[C@@H]2C[C@@H](O)CC2C(=O)[C@@H](NC(=O)CC/C=C/c2ccc(CO[C@H](C)[C@H](CCC(N)=O)NC(=O)[C@@H]3Cc4cccc5c4N3C(=O)[C@@H](NC(=O)c3cc4cc(C(=O)P(=O)(O)O)ccc4[nH]3)CC5)cc2)C(C)(C)C)cc1", "note": "(stereo partly drawn) [Compound I-130, diammonium 2-[[(2S,11S)-2-[[(3S,4R)-1-carbamoyl-4-([4-[(1E)-4-[[(2S)-1-[(2S,4R)-4-hydroxy-2-([[4-(4-methyl-1,3-thiazol-5-yl)phenyl]methyl]carbamoyl)pyrrolidin-1-yl]-3,3-dimethyl-1-oxobutan-2-yl]carbamoyl]but-1-en-1-yl]phenyl]methoxy)pentan-3-yl]carbamoyl]-12-oxo-1-azatricyclo[6.4.1.0^[4,13]]trideca-4(13),5,7-trien-11-yl]carbamoyl]-1H-indole-5-carbonylphosphonate]", "DC50": "> 1000"}
    ]},
    {"target": "STAT3 (Homo sapiens, UniProt P40763)", "assay": "STAT3 HiBiT degradation assay in transfected A549 cells", "format": "cell-based", "design": "expressed in transfected cells; host or cells: A549", "conditions": "read-out: STAT3 HiBiT A549 degradation 24 h: Average external-Abs DC50; A549, 24 h", "method": "as §1, §2, §3, §4", "units": {"DC50": "nM"}, "values": [
      {"smiles": "CN1C(=O)CCC(N2Cc3c(C#CCCCCCC(=O)N4CC[C@H]5CC[C@@H](C(=O)N[C@@H](CCC(N)=O)C(=O)NC(c6ccccc6)c6ccccc6)N5C(=O)[C@@H](NC(=O)c5cc6cc(C(=O)P(=O)(O)O)ccc6[nH]5)C4)cccc3C2=O)C1=O", "note": "(stereo in doubt) [Compound I-120, diammonium 2-[[(5S,8S,10aR)-8-[[(1S)-3-carbamoyl-1-(diphenylmethylcarbamoyl)propyl]carbamoyl]-3-[8-[2-(1-methyl-2,6-dioxopiperidin-3-yl)-1-oxo-3H-isoindol-4-yl]oct-7-ynoyl]-6-oxo-octahydropyrrolo[1,2-a][1,5]diazocin-5-yl]carbamoyl]-1H-indole-5-carbonylphosphonate]", "DC50": "> 1000"}
    ]}
  ]
}
